Patent publication US20260345584A1, “METHODS AND PHARMACEUTICAL COMPOSITIONS FOR TREATING CHEMOTHERAPY-INDUCED PERIPHERAL NEUROPATHY WITH EG5 INHIBITORS” (UNIVERSITY OF MIAMI, priority 2023, published 2026)

How the values were obtained:
[1] = system: HyPer oxidation in keratinocytes; test: HyPer imaging of H2O2 production upon caudal fin stretch; assay type: in vivo, zebrafish; settings: wildtype, 3 hr paclitaxel
Procedure: HyPer fluorescence was measured in the oxidized (505 nm) and unoxidized (420 nm) channels by using the region of interest (ROI) function in ZEN Black (Zeiss) whereby ROIs were selected inside highly magnified mitochondria (HyPer-mito), cytoplasm (HyPer-cyto) or the plasma membrane (HyPer-CAAX). The data was exported, and ratios determined in Excel. H2O2 measurements in zebrafish transiently injected with tp63:Hyper were manually performed by placing spot objects in Imaris 9.5.1 onto individual cells such that the spots extended to the lateral edges. Fluorescence intensities were measured inside the spots and 505 nm/420 nm ratios were subsequently calculated.
The extent of stretch that was induced in wildtype transgenic Tg(tp63:GFP-CAAX) (Lisse et al., 2016, Proceedings of the National Academy of Sciences of the United States of America 113: E2189-2198) fish in which keratinocyte plasma membranes are fluorescently labelled was characterized.
To further investigate whether paclitaxel in combination with stretch alters ROS formation, HyPer imaging was performed.

skin gene expression = test: Human skin RNAseq of paclitaxel-treated CIPN patients; assay type: in vivo
Procedure: Neurological history, examination, and QLQ-CIPN20 quality of life questionnaire, which has been validated to detect the presence of CIPN (Postma et al., 2005, Eur J Cancer 41: 1135-1139), was completed in all subjects. Consent was given to obtain two skin punch biopsies of approximately 4 mm diameter. These were collected 10 cm proximal to the lateral malleolus on the distal leg as described previously (Engelstad et al., 2012, Neurology 79: 2187-2193). The biopsies were carried out under anesthesia following local injection of 2% lidocaine with epinephrine, using a sterile technique. In addition, three healthy volunteers of similar age and same gender (female) were recruited as controls. […] Sequence reads were trimmed to remove possible adapter sequences and nucleotides with poor quality using Trimmomatic v.0.36. The trimmed reads were mapped to the Homo sapiens GRCh38 reference genome available on ENSEMBL using the STAR aligner v.2.5.2b. The STAR aligner was a splice aligner that detects splice junctions and incorporates them to help align the entire read sequences. […] Unique gene hit counts were calculated by using featureCounts from the Subread package v.1.5.2. […] Only unique reads that fell within exon regions were counted. If a strand-specific library preparation was performed, the reads were strand-specifically counted. […]

keratinocyte nuclei = test: Nuclear volume and sphericity of keratinocytes; assay type: in vivo, zebrafish; settings: 96 hr, keratinocytes with dfMTs
Procedure: Nuclear sphericity and volume were calculated in Imaris following 3D rendering of round keratinocyte nuclei using the Surface tool. First, background subtractions were performed, followed by automatic threshold detection. The threshold was adjusted if necessary to fit the nucleus. Thresholds were kept constant for comparisons.
It was expected that dfMTs should be in close proximity to the nucleus in order to activate Nox1 by mechanotransduction. To further confirm this expectation, high resolution imaging and 3D rendering of keratinocyte dfMTs and nuclei were used.

CC(=O)O[C@H]1C(=O)[C@@]2(C)[C@H]([C@H](OC(=O)c3ccccc3)[C@]3(O)C[C@H](OC(=O)[C@H](O)[C@@H](NC(=O)c4ccccc4)c4ccccc4)C(C)=C1C3(C)C)[C@]1(OC(C)=O)CO[C@@H]1C[C@@H]2O [paclitaxel]
time of peak HyPer oxidation post-stretch [1]: 10 to 20 min
KIF11 expression (skin gene expression; CIPN patients after paclitaxel vs controls): upregulated in all three patients
NOX1 and CYBB expression (skin gene expression; CIPN patients after paclitaxel vs healthy controls): most highly upregulated genes
nuclear volume (keratinocyte nuclei; 22 μM paclitaxel): 582±83.18 μm3
nuclear sphericity (1=spherical vs. 0=nonspherical) (keratinocyte nuclei; paclitaxel): 0.23±0.01
